Measured values taken from patent publication US8962793B2, “ErbB interface peptidomimetics and methods of use thereof” (The Trustees of the University of Pennsylvania, priority 2001, dated 2015).
Bridge positions count the residues as written; N and C are the ends. Peptide text beside a SMILES is read from it.

Columns and labels:
ErbB1 = biological target: T1, ErbB1 (Homo sapiens, UniProt P00533); assay: Surface plasmon resonance (Biacore) binding to immobilized ErbB1 extracellular domain; conditions: immobilized extracellular domain, surface plasmon resonance; read-out: KD (μM) ErbB1
T1 construct: gift of Dr. Mark A. Lemmon, University of Pennsylvania School of Medicine
T1 sequence (P00533 25-645 limits assumed): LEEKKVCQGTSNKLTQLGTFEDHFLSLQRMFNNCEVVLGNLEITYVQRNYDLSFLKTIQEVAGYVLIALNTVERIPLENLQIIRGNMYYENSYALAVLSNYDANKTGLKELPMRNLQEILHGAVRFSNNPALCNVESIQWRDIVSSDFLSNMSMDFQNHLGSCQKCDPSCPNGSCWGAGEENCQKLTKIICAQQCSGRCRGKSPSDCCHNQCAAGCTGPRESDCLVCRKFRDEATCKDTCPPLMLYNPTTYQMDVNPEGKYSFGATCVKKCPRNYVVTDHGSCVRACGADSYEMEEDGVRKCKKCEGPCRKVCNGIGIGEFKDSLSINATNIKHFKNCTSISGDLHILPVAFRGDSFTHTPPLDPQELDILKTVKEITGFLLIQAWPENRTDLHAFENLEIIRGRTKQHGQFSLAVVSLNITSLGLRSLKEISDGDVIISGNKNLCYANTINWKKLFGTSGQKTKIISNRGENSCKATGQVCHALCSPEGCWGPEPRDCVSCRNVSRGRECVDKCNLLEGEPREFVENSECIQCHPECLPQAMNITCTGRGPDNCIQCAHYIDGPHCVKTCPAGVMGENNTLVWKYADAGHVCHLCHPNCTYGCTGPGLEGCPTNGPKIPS
Method: (§1) The designed erbB peptides were tested for binding to erbB receptors using surface plasmon resonance (Biacore) technology (described supra) using soluble erbB-1 and erbB-3. The response was plotted in real time in the form of sensorgram curves.
(§2) Binding experiments were performed with the surface plasmon resonance based biosensor instrument Biacore 3000 (Biacore AB, Uppsala, Sweden), at 25° C. […] (erbB2) and Dr. Mark A. Lemmon, Department of Biochemistry and Biophysics, University of Pennsylvania School of Medicine (erbB1 and erbB3). Immobilization of the erbB receptors in the sensor surface was performed following the standard amine coupling procedure according to manufacturer's instructions. Briefly, 35 μl of a solution containing 0.2 M N-ethyl-N′-(dimethylaminopropyl) carbodiimide (EDC) and 0.05 M N-hydroxysuccinimide (NHS), were injected at a flow rate of 5 μl/min to activate carboxyl groups on the sensor chip surface. Receptors (40 ng/ml in 10 mM NaOAc buffer, pH 5.0) were flowed over the chip surface at a flow rate of 20 μl/min until the desired level bound protein was reached. Unreacted protein was washed out and unreacted activated groups were blocked by the injection of 35 μl of 1 M ethanolamine at 5 μl/min. […] A reference surface was generated simultaneously under the same conditions but without receptor injection and used as a blank to correct for instrument and buffer artifacts. Peptides were injected at variable concentrations at 20 μl/min flow rate and binding to the receptors immobilized on the chip was monitored in real time. Each sensorgram consists of an association phase (first 240 s), reflecting binding of the injected peptide to the receptor, followed by a dissociation phase (300 s), during which the running buffer is passed over the chip and the bound peptide is being washed off the receptor surface.

ErbB2 = biological target: T2, ErbB2 (Homo sapiens, UniProt P04626); assay: Surface plasmon resonance (Biacore) binding to immobilized ErbB2 extracellular domain; conditions: immobilized extracellular domain, surface plasmon resonance; read-out: KD (μM) ErbB2
T2 construct: provided by Dr. Che Law, Xcyte Therapeutics, Seattle
T2 sequence (P04626 23-652 limits assumed): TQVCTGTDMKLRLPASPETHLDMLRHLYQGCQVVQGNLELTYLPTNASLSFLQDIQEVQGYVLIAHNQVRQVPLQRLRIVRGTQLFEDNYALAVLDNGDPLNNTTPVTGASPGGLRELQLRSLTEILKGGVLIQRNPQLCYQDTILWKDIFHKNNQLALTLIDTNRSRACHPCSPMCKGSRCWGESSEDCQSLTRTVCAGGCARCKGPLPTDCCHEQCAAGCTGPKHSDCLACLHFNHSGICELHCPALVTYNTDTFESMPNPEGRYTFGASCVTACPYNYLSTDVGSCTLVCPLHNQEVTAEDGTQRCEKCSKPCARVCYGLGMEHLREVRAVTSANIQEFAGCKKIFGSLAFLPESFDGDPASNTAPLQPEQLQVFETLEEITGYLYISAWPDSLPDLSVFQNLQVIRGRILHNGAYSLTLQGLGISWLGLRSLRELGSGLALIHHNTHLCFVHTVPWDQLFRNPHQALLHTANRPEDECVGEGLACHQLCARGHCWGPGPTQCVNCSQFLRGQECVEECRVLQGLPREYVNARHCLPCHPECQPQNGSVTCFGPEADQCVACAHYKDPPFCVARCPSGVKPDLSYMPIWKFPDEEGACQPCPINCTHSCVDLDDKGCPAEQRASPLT
Method: as §1, with “curves. Dissociation constants (Kd) were determined as described (Park, et al. 2000, Nat. Biotechnol. 18:194-198).” for “curves.”
A sensorgram for binding of B2-S22-APE peptide to erbB receptors immobilized on the sensor chip was performed.
as §2

ErbB3 = biological target: T3, ErbB3 (Homo sapiens, UniProt P21860); assay: Surface plasmon resonance (Biacore) binding to immobilized ErbB3 extracellular domain; conditions: immobilized extracellular domain, surface plasmon resonance; read-out: KD (μM) ErbB3
T3 construct: gift of Dr. Mark A. Lemmon, University of Pennsylvania School of Medicine
T3 sequence (P21860 20-643 limits assumed): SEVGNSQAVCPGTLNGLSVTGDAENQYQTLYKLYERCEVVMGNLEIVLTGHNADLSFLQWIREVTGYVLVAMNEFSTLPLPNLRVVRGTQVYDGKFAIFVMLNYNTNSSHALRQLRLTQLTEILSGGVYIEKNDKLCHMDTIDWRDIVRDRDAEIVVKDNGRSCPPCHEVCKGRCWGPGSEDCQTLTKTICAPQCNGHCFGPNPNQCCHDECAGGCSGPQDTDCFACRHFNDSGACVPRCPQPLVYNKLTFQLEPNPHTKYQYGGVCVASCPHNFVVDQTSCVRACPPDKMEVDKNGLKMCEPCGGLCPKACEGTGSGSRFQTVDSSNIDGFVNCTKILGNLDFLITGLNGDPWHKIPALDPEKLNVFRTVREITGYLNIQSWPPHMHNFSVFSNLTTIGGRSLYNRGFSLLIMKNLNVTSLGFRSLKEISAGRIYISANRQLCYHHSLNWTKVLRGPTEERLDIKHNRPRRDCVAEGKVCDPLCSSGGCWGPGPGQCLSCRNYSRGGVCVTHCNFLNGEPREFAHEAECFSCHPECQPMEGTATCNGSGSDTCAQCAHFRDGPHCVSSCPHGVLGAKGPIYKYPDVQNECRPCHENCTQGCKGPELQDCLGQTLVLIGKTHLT
Method: as §1, §2

[1] = biological target: T4, erbB3-erbB1 heteromerization (Homo sapiens, UniProt P00533); assay: SPR inhibition of HRGβ1-induced binding of ErbB3 to immobilized ErbB1; conditions: peptide 10 μm, ErbB3 300 nm, HRGβ1 5 μM
T4 construct: the ectodomains of erbB receptors were immobilized on the surface chip; erbB1 and erbB3: gift of Dr. Mark A. Lemmon
T4 sequence (P00533 25-645 limits assumed, one chain of several): as the sequence (P00533 25-645 limits assumed) above
Method: (§3) The effect of cysteine-knot mimetics on receptor self-associations, was examined using a Biacore assay in which the ectodomains of erbB receptors were immobilized on the surface chip and the ectodomain of erbB3 was injected at 300 nM concentrations either alone or in the presence of 5 μM hereglunin HRGβ1.
(§4) The effect of the erbB peptides on heregulin-induced receptor self-associations was studied by preinjecting them at 10 μM followed by injection of erbB3-HRGβ1 (FIG. 4; 1B, 2B, 3B).
as §2

[2] = biological target: T5, erbB3-erbB2 heteromerization (Homo sapiens, UniProt P04626); assay: SPR inhibition of HRGβ1-induced binding of ErbB3 to immobilized ErbB2; conditions: peptide 10 μm, ErbB3 300 nm, HRGβ1 5 μM
T5 construct: the ectodomains of erbB receptors were immobilized on the surface chip; erbB2: Dr. Che Law, Xcyte Therapeutics; erbB3: Dr. Mark A. Lemmon
T5 sequence (P04626 23-652 limits assumed, one chain of several): as the sequence (P04626 23-652 limits assumed) above
Method: as §3, §4, §2

[3] = biological target: T6, erbB3-erbB3 homomerization (Homo sapiens, UniProt P21860); assay: SPR inhibition of HRGβ1-induced binding of ErbB3 to immobilized ErbB3; conditions: peptide 10 μm, ErbB3 300 nm, HRGβ1 5 μM
T6 construct: the ectodomains of erbB receptors were immobilized on the surface chip; erbB3: gift of Dr. Mark A. Lemmon
T6 sequence (P21860 20-643 limits assumed): as the sequence (P21860 20-643 limits assumed) above
Method: as §3, §4, §2

[4] = biological target: T7, erbB2-erbB4 receptor heteromerization in the 32D-E2/E4 cells (Homo sapiens, UniProt P04626); assay: Chemical cross-linking and immunoblotting of heregulin-induced receptor dimerization in 32D-E2/E4 cells; assay type: cell-based; conditions: dose-dependent, FIG. 5B, read-out: apparent IC50 of inhibition of receptor dimerization
T7 construct: dimerization of native full-length ErbB receptors was studied using the 32D cell lines transfected with different erbB receptors; host or cells: 32D cells (32D-E2/E4)
T7 sequence (P04626 23-1255, one chain of several): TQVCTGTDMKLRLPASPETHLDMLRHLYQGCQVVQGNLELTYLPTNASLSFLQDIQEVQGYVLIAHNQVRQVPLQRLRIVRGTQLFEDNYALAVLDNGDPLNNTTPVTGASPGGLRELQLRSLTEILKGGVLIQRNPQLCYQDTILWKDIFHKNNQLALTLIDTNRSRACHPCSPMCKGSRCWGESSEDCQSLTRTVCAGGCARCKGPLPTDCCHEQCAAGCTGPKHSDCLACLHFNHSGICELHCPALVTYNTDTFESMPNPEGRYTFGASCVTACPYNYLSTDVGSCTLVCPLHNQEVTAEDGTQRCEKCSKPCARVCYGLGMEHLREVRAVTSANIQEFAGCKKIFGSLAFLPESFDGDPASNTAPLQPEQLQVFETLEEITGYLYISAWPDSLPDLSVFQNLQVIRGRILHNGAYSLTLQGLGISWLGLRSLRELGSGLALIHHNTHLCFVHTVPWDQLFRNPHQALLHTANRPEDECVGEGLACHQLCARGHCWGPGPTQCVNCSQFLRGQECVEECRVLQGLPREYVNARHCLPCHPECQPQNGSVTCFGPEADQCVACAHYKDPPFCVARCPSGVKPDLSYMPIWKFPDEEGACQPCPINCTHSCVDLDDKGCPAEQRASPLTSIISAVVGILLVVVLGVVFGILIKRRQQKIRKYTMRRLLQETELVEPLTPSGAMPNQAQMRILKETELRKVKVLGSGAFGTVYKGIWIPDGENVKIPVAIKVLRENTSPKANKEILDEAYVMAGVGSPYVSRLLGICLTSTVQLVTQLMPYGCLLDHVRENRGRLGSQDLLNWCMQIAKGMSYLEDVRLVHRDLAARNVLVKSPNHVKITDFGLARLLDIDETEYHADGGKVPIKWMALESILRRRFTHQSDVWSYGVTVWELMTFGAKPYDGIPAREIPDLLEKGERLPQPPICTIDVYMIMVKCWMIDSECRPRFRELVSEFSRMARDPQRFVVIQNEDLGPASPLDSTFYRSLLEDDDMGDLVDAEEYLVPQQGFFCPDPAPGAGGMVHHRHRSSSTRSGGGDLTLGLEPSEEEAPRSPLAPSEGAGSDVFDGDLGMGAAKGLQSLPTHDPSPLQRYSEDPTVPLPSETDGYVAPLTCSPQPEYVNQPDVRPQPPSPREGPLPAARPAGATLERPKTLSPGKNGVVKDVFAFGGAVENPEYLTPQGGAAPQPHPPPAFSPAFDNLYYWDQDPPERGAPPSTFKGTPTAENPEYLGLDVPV
Method: Effect of the ErbB peptides on biochemically defined dimerization of native full-length ErbB receptors was studied using the 32D cell lines transfected with different erbB receptors. 32D-E1 cells were transfected with erbB1; 32D-E2/E3 with erbB2 and erbB3; and 32D-E2/E4 with erbB2 and erbB4.
32D cell transfectants with ErbB receptors (gift from Dr. Jacalyn H. Pierce, National Cancer Institute) were grown in RPMI 1640, 10% FBS and 5% WEHI medium (GenoQuest, Interlukin-3 supplement) and respective antibiotics, i.e. 32D-E1 (gptr), 32D-E2/E3 (neor/gptr) and 32D-E2/E4 (neor/gptr) (29). The WEHI medium was withdrawn and cells were pre-incubated with ErbB peptides for 2 hours at 37° C. before adding 10 μg/ml EGF (for 32D-E1, Collaborative Biomedical Products) or 10 μg/ml HRG 1 (for 32D-E2/E3 or 32D E2/E4, R&D Systems) and further incubated at 37° C. for 24-48 hours. The cell viability was detected with propidium iodide staining followed by flow cytometry quantification. For the cross-linking analysis, approximately 2×10^6 cells were suspended in RPMI 1640 medium containing 0.1% BSA and 10 mM HEPES, and pre-incubated with ErbB peptides for 2 hours at 37° C. before adding 10 μg/ml EGF or 10 μg/ml Heregulin-β1 EGF domain and further incubated at 37° C. for 10-15 minutes. Cells were rinsed with PBS and incubated in 2 mM BS^3/PBS at 4° C. for 45 minutes. […]

Kd (ErbB1): 0.407 µM | Kd (ErbB2): 0.302 µM | Kd (ErbB3): 0.429 µM | Percent Inhibition ErbB1 [1]: 78.4% | Percent Inhibition ErbB2 [2]: 82.5% | Percent Inhibition ErbB3 [3]: 61.7% | IC50 [4]: 800 nM
Compound: C[C@@H]1NC(=O)CNC(=O)[C@H](CCC(=O)O)NC(=O)[C@H](CCC(=O)O)NC(=O)[C@H](CC(=O)O)NC(=O)[C@@H]2CCCN2C(=O)[C@H](Cc2ccccc2)NC(=O)[C@@H](NC(=O)[C@@H](N)Cc2ccc(O)cc2)CSSC[C@@H](C(=O)N[C@@H](Cc2ccc(O)cc2)C(N)=O)NC1=O [B2-S22-AFA, YCFPDEEGACY] (H-YCFPDEEGACY-NH2; disulfide 2-10)
